# Measured values taken from patent US11547681B2, “N-acylethanolamide derivatives and uses thereof” (ELIEM THERAPEUTICS, INC., priority 2016, dated 2023).
# What was measured:
# in vitro [1] = details: for Measured concentration of analyte PEA, 0 min / Measured concentration of analyte PEA, 10 min / Measured concentration of analyte PEA, 20 min / Measured concentration of analyte PEA, 30 min / Measured concentration of analyte PEA, 60 min / % Remaining of Initial, 0 min / % Remaining of Initial, 10 min / % Remaining of Initial, 20 min / % Remaining of Initial, 30 min / % Remaining of Initial, 60 min: 1 μM; for % Remaining of Initial, 0 min / % Remaining of Initial, 10 min / % Remaining of Initial, 20 min / % Remaining of Initial, 30 min / % Remaining of Initial, 60 min / microsomal CLint at 1 μM / half-life at 1 μM: microsomes; for % Remaining of Initial, 0 min: 0 h; for % Remaining of Initial, 30 min: 0.5 h; for % Remaining of Initial, 60 min: 1 h
# Protocol: The reaction mixture, minus cofactors, was prepared as described below. The test article was added into the reaction mixture at a final concentration of 1 μM. […] An aliquot of the reaction mixture (without cofactor) was equilibrated in a shaking water bath at 37° C. for 3 minutes. The reaction was initiated by the addition of cofactor, and the mixture was incubated in a shaking water bath at 37° C. Aliquots (100 μL) were withdrawn at 0, 10, 20, 30, and 60 minutes. All samples were immediately combined with 400 μL of ice-cold 50/50 acetonitrile/H2O containing 0.1% formic acid and internal standard to terminate the reaction. The samples were then mixed and centrifuged to precipitate proteins. Calibration standards were prepared in matched matrix. All samples and standards were assayed by LC-MS/MS using electrospray ionization for both the dosed prodrug I-9 and the expected drug (PEA). Analytical conditions are outlined in Appendix 4-1. The test article concentration at each time point was compared to the test article concentration at time 0 to determine the percent remaining at each time point. Half-lives were calculated using GraphPad software, fitting to a single-phase exponential decay equation.
# (§1) Reaction mixture, minus cofactors, was prepared as described below. Test article was added into the reaction mixture at a final concentration of 1 μM. […] An aliquot of the reaction mixture (without cofactor) was equilibrated in a shaking water bath at 37° C. for 3 minutes. The reaction was initiated by the addition of cofactor, and the mixture was incubated in a shaking water bath at 37° C. Aliquots (100 μL) were withdrawn at 0, 10, 20, 30, and 60 minutes. Test article samples were immediately combined with 300 μL of ice-cold acetonitrile containing 1% formic acid. Control samples were immediately combined with 400 μL of ice-cold 50/50 acetonitrile (ACN)/dH2O containing 0.1% formic acid and internal standard to terminate the reaction. Samples were then mixed and centrifuged to precipitate proteins. Calibration standards were prepared in matched matrix. Samples and standards were assayed by LC-MS/MS using electrospray ionization for both dosed prodrug and expected drug (PEA). Analytical conditions are outlined in Appendix 8-1. Test article concentration at each time point was compared to test article concentration at time 0 to determine the percent remaining at each time point. Half-lives were calculated using GraphPad software, fitting to a single-phase exponential decay equation.
# (§2) Reaction mixture, minus cofactors, was prepared as described below. Test article was added into the reaction mixture at a final concentration of 1 μM. […] An aliquot of the reaction mixture (without cofactor) was equilibrated in a shaking water bath at 37° C. for 5 minutes. Reaction was initiated by the addition of cofactor, and the mixture was incubated in a shaking water bath at 37° C. Aliquots (100 μL) were withdrawn at 0, 10, 20, 30, and 60 minutes. Test article samples were immediately combined with 300 μL of ice-cold acetonitrile containing 1% formic acid. Control samples were immediately combined with 400 μL of ice-cold 50/50 acetonitrile (ACN)/dH2O containing 0.1% formic acid and internal standard to terminate the reaction. Samples were then mixed and centrifuged to precipitate proteins. Calibration standards were prepared in matched matrix. Samples and standards were assayed by LC-MS/MS using electrospray ionization for both the dosed prodrug and the expected drug (PEA). Analytical conditions are outlined in Appendix 10-1. Test article concentration at each time point was compared to the test article concentration at time 0 to determine the percent remaining at each time point. Half-lives were calculated using GraphPad software, fitting to a single-phase exponential decay equation.
# Reaction mixture, minus cofactors, was prepared as described below. Test article was added into the reaction mixture at a final concentration of 1 μM.
# in vitro [2] = details: male; for Measured concentration of analyte PEA, 0 min / Measured concentration of analyte PEA, 10 min / Measured concentration of analyte PEA, 20 min / Measured concentration of analyte PEA, 30 min / Measured concentration of analyte PEA, 60 min / % Remaining of Initial, 0 min / % Remaining of Initial, 10 min / % Remaining of Initial, 20 min / % Remaining of Initial, 30 min / % Remaining of Initial, 60 min: 1 μM; for % Remaining of Initial, 0 min / % Remaining of Initial, 10 min / % Remaining of Initial, 20 min / % Remaining of Initial, 30 min / % Remaining of Initial, 60 min / microsomal CLint at 1 μM / half-life at 1 μM: microsomes; for % Remaining of Initial, 0 min: 0 h; for % Remaining of Initial, 30 min: 0.5 h; for % Remaining of Initial, 60 min: 1 h
# Protocol: as §1, §2
# as §1, with “minutes. Reaction” for “minutes. The reaction”, “300 μL,” for “300 μL”, “Appendix 13-1.” for “Appendix 8-1.”
# Reaction mixture, minus cofactors, was prepared as described below.
smiles,measurement,setting,value
CC/C=C\C/C=C\C/C=C\C/C=C\C/C=C\CCCC(=O)OCCNC(=O)CCCCCCCCCCCCCCC [Compound I-5],"Measured concentration of analyte PEA, 0 min","in vitro [1]; both, human",0.014 µM
same,"Measured concentration of analyte PEA, 10 min","in vitro [1]; both, human",0.020 µM
same,"Measured concentration of analyte PEA, 20 min","in vitro [1]; both, human",0.025 µM
same,"Measured concentration of analyte PEA, 30 min","in vitro [1]; both, human",0.022 µM
same,"Measured concentration of analyte PEA, 60 min","in vitro [1]; both, human",0.016 µM
same,"% Remaining of Initial, 0 min","in vitro [1]; both, human",100%
same,"% Remaining of Initial, 10 min","in vitro [1]; both, human",90%
same,"% Remaining of Initial, 20 min","in vitro [1]; both, human",82%
same,"% Remaining of Initial, 30 min","in vitro [1]; both, human",79%
same,"% Remaining of Initial, 60 min","in vitro [1]; both, human",62%
same,microsomal CLint at 1 μM,"in vitro [1]; both, human",< 23.1 µL/min/mg
same,microsomal CLint at 1 μM,"in vitro [1]; both, human, calculated value in parentheses",15.4 µL/min/mg
same,half-life at 1 μM,"in vitro [1]; both, human, Calculated half-life (in parentheses)",90 min
same,half-life at 1 μM,"in vitro [1]; both, human, Half-life",> 60 min
same,"Measured concentration of analyte PEA, 0 min","in vitro [1]; male, Sprague-Dawley, rat",0.034 µM
same,"Measured concentration of analyte PEA, 10 min","in vitro [1]; male, Sprague-Dawley, rat",0.033 µM
same,"Measured concentration of analyte PEA, 20 min","in vitro [1]; male, Sprague-Dawley, rat",0.015 µM
same,"Measured concentration of analyte PEA, 30 min","in vitro [1]; male, Sprague-Dawley, rat",0.015 µM
same,"Measured concentration of analyte PEA, 60 min","in vitro [1]; male, Sprague-Dawley, rat",0.0027 µM
same,"% Remaining of Initial, 0 min","in vitro [1]; male, Sprague-Dawley, rat",100%
same,"% Remaining of Initial, 10 min","in vitro [1]; male, Sprague-Dawley, rat",77%
same,"% Remaining of Initial, 20 min","in vitro [1]; male, Sprague-Dawley, rat",70%
same,"% Remaining of Initial, 30 min","in vitro [1]; male, Sprague-Dawley, rat",69%
same,"% Remaining of Initial, 60 min","in vitro [1]; male, Sprague-Dawley, rat",57%
same,microsomal CLint at 1 μM,"in vitro [1]; male, Sprague-Dawley, rat",< 23.1 µL/min/mg
same,microsomal CLint at 1 μM,"in vitro [1]; male, Sprague-Dawley, rat, calculated value in parentheses",18.6 µL/min/mg
same,half-life at 1 μM,"in vitro [1]; male, Sprague-Dawley, rat, Calculated half-life (in parentheses)",75 min
same,half-life at 1 μM,"in vitro [1]; male, Sprague-Dawley, rat, Half-life",> 60 min
same,"Measured concentration of analyte PEA, 0 min","in vitro [2]; Beagle, dog",0.025 µM
same,"Measured concentration of analyte PEA, 10 min","in vitro [2]; Beagle, dog",0.081 µM
same,"Measured concentration of analyte PEA, 20 min","in vitro [2]; Beagle, dog",0.090 µM
same,"Measured concentration of analyte PEA, 30 min","in vitro [2]; Beagle, dog",0.087 µM
same,"Measured concentration of analyte PEA, 60 min","in vitro [2]; Beagle, dog",0.063 µM
same,"% Remaining of Initial, 0 min","in vitro [2]; Beagle, dog",100%
same,"% Remaining of Initial, 10 min","in vitro [2]; Beagle, dog",84%
same,"% Remaining of Initial, 20 min","in vitro [2]; Beagle, dog",75%
same,"% Remaining of Initial, 30 min","in vitro [2]; Beagle, dog",75%
same,"% Remaining of Initial, 60 min","in vitro [2]; Beagle, dog",67%
same,microsomal CLint at 1 μM,"in vitro [2]; Beagle, dog",< 23.1 µL/min/mg
same,microsomal CLint at 1 μM,"in vitro [2]; Beagle, dog, calculated value in parentheses",13.3 µL/min/mg
same,half-life at 1 μM,"in vitro [2]; Beagle, dog, Calculated half-life (in parentheses)",104 min
same,half-life at 1 μM,"in vitro [2]; Beagle, dog, Half-life",> 60 min
same,"Measured concentration of analyte PEA, 0 min","in vitro [2]; CD-1, mouse",0.048 µM
same,"Measured concentration of analyte PEA, 10 min","in vitro [2]; CD-1, mouse",0.080 µM
same,"Measured concentration of analyte PEA, 20 min","in vitro [2]; CD-1, mouse",0.052 µM
same,"Measured concentration of analyte PEA, 30 min","in vitro [2]; CD-1, mouse",0.048 µM
same,"Measured concentration of analyte PEA, 60 min","in vitro [2]; CD-1, mouse",0.024 µM
same,"% Remaining of Initial, 0 min","in vitro [2]; CD-1, mouse",100%
same,"% Remaining of Initial, 10 min","in vitro [2]; CD-1, mouse",72%
same,"% Remaining of Initial, 20 min","in vitro [2]; CD-1, mouse",57%
same,"% Remaining of Initial, 30 min","in vitro [2]; CD-1, mouse",56%
same,"% Remaining of Initial, 60 min","in vitro [2]; CD-1, mouse",55%
same,microsomal CLint at 1 μM,"in vitro [2]; CD-1, mouse",23.6 µL/min/mg
same,half-life at 1 μM,"in vitro [2]; CD-1, mouse, Half-life",59 min
